Measurements taken from patent publication US11987542B2, “Co-crystal of sorafenib derivatives and process for preparation thereof” (EicOsis, LLC, priority 2018, dated 2024).

How the values were obtained:
Type in all cases: biochemical
Pig sEH = target: T1, Pig sEH (Sus scrofa, UniProt Q6Q2C2); assay: sEH inhibition, radioactive assay and liver cytosolic preparation
T1 construct: from tissue
T1 sequence (Q6Q2C2 1-555): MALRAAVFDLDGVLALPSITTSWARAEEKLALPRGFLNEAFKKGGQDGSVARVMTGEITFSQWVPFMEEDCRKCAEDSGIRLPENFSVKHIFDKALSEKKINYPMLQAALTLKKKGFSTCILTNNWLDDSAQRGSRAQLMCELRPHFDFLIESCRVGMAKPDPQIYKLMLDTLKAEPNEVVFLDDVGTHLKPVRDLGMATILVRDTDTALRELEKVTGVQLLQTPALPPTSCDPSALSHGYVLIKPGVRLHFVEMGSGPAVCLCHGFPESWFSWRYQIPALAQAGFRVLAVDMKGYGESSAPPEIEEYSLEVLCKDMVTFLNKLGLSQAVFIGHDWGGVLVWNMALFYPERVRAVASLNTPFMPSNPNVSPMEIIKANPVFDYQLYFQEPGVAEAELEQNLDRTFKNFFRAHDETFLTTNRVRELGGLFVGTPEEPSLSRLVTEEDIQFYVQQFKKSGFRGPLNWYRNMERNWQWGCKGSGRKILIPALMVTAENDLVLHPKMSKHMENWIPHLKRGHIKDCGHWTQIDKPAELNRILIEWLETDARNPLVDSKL

Sheep sEH = target: T2, Sheep sEH (Ovis aries, UniProt A0ACI6PZ20); assay: as above
T2 sequence (A0ACI6PZ20 1-549): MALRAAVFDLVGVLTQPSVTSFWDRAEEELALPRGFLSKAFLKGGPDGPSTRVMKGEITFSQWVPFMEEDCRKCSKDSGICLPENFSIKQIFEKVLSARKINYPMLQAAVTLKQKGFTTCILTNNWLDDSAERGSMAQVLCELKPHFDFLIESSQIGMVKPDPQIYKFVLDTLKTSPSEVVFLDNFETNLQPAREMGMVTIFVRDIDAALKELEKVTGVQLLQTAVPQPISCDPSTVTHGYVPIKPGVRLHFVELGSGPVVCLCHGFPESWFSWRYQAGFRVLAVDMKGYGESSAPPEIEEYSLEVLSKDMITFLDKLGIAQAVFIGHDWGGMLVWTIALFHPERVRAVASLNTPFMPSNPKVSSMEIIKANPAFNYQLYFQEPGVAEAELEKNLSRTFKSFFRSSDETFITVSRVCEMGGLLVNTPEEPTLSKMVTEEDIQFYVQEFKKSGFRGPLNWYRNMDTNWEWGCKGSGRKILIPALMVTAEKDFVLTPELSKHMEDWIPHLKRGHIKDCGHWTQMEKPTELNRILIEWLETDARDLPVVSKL

Rat sEH = target: T3, Rat sEH (Rattus norvegicus, UniProt P80299); assay: sEH inhibition, fluorescent assay
T3 sequence (P80299 1-554): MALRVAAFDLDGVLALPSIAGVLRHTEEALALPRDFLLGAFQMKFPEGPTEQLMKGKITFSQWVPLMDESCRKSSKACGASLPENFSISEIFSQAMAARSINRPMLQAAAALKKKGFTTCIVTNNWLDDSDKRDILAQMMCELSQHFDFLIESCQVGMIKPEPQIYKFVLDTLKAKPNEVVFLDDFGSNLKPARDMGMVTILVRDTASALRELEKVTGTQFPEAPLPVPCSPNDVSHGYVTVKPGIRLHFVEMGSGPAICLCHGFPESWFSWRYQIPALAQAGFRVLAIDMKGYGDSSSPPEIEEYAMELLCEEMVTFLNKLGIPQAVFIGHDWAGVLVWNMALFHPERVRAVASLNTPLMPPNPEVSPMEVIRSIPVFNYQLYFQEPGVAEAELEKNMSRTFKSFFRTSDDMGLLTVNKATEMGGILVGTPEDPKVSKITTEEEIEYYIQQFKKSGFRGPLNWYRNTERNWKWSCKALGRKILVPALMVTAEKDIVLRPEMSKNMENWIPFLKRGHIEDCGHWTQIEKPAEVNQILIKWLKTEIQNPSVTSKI

O=C(Nc1ccc(OC(F)(F)F)cc1)N[C@H]1CC[C@H](Oc2ccc(C(=O)O)cc2)CC1 [EC1728, trans-4-{4-[3-(4-trifluoromethoxy-phenyl)-ureido]-cyclohexyloxy}-benzoic acid] was tested, and the IC50 (Pig sEH) was 29 nM, the IC50 (Sheep sEH) was 6 nM and the IC50 (Rat sEH) was 16 nM.
